Consider one compound from patent US20230148144A1, “Cell” (AUTOLUS LIMITED, priority 2020, published 2023).

This assay deals with CAR-T cells. Briefly: Effect of Tacrolimus on proliferation of CAR-expressing cells in co-culture. Type of assay: cell-based. The note with it: 20 ng/ml Tacrolimus. As for the experimental part:
Cells were co-cultures for 96 hours at a 1:4 E:T ratio in the presence or absence of 20 ng/ml of Tacrolimus. Transduced effector cells were identified based on their expression of RQR8 and their proliferation analysed using cell-trace violet (CTV) dilution. […] In a similar study, cells transduced to express either TRBC2 CAR alone or TRBC2 CAR in combination with a calcineurin mutant (CnB30) were co-cultured for 4 days with TRBC2+ positive targets in the presence or absence of 20 ng/ml of Tacrolimus. […] This was true for cells expressing TRBC2 CAR alone or co-expressing TRBC2 CAR in combination with the calcineurin mutant.

On to `C=CC[C@@H]1/C=C(\C)C[C@H](C)C[C@H](OC)[C@H]2O[C@@](O)(C(=O)C(=O)N3CCCC[C@H]3C(=O)O[C@H](/C(C)=C/[C@@H]3CC[C@@H](O)[C@H](OC)C3)[C@H](C)[C@@H](O)CC1=O)[C@H](C)C[C@@H]2OC` [Tacrolimus], for which the “proliferation of cells expressing TRBC2 CAR alone” value (4 days co-culture with TRBC2+ targets, FIG. 22) is given as “inhibits proliferation”. In addition, for the setting “96 h co-culture, FIG. 16B vs FIG. 17B”, the “proliferation of CAR-T cells” value is “inhibited”.
